Paper PMC4728508 (Marine Drugs, 2016)

Columns and labels:
[1] = tested on: Kunming mice; conditions: mouse, in vivo, sc
[2] = target: human α3β2 nAChR (Homo sapiens, UniProt P17787+P32297); type: cell-based
[3] = target: rat α3β2 nAChR (Rattus norvegicus, UniProt P04757+P12390); type: cell-based
rat α3β2 nAChR, sequence (P04757 26-499 limits assumed): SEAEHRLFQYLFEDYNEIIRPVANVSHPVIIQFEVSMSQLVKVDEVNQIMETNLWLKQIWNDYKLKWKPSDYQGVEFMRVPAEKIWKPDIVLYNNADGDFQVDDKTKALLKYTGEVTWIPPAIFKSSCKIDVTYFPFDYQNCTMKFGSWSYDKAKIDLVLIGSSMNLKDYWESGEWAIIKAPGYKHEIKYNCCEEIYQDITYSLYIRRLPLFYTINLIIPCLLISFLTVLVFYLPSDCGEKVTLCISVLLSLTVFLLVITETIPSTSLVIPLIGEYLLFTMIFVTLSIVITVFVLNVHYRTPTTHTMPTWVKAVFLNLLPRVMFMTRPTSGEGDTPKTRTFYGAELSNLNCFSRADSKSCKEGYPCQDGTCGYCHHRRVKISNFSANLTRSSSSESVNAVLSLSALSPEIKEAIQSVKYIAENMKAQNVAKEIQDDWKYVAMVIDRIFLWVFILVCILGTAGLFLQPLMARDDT
rat α3β2 nAChR, sequence (P12390 25-500 limits assumed): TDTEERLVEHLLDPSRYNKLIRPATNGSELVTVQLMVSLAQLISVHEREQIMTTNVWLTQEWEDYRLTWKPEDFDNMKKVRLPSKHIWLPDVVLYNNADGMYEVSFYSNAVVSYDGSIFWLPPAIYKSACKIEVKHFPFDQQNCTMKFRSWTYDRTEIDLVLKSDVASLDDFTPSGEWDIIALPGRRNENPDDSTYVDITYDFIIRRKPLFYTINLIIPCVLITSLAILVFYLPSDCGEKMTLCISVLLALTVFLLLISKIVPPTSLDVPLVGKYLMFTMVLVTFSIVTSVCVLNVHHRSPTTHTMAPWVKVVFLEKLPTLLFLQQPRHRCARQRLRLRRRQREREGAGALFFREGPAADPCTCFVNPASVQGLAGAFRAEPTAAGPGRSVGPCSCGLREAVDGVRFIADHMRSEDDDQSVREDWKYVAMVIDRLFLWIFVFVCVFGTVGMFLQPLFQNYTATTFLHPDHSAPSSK

human α3β2 nAChR, sequence (P32297 32-505 limits assumed): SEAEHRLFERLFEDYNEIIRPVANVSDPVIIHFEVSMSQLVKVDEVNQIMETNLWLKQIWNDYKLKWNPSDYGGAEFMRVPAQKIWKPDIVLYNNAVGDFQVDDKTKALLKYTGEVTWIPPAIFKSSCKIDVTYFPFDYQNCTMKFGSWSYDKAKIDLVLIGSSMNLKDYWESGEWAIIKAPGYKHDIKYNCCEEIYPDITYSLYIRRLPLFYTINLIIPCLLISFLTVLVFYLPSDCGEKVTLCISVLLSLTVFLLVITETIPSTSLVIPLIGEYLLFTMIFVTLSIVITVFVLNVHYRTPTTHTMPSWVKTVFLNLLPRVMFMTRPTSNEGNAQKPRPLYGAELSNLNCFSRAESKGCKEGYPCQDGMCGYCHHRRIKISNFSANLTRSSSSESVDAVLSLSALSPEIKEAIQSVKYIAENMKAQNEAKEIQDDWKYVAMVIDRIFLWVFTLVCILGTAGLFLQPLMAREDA
human α3β2 nAChR, sequence (P17787 26-502 limits assumed): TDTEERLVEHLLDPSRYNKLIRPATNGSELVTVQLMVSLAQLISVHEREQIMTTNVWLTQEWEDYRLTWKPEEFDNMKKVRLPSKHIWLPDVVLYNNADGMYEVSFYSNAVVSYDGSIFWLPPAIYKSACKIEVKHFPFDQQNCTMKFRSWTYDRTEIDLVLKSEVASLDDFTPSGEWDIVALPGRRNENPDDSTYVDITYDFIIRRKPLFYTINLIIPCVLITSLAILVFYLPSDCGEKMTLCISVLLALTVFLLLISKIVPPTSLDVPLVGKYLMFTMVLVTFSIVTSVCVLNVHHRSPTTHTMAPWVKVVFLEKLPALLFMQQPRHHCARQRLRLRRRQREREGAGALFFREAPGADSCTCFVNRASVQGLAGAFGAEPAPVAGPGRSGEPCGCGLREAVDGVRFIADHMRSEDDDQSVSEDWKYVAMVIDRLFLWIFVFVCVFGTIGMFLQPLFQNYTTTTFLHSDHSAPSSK

| Structure (SMILES) | latency to thermal stimulus [1] | loss of potency versus native LvIA [2] [fold] | loss of potency versus native LvIA [3] [fold] |
| --- | --- | --- | --- |
| CN1CC[C@]23c4c5ccc(O)c4O[C@H]2[C@@H](O)C=C[C@H]3[C@H]1C5 [Morphine] | highest latency | – | – |
| CC[C@H](C)[C@@H]1NC(=O)[C@H](CCC(=O)O)NC(=O)[C@@H]2CCCN2C(=O)[C@H](Cc2c[nH]cn2)NC(=O)[C@H](CC(=O)O)NC(=O)[C@H](C(C)C)NC(=O)[C@H](CC(N)=O)NC(=O)[C@@H]2CSSC[C@H](NC(=O)CNC(=O)[C@@H](N)CCSC)C(=O)N[C@@H](CSSC[C@@H](C(=O)O)NC1=O)C(=O)N[C@@H](CO)C(=O)N[C@@H](Cc1c[nH]cn1)C(=O)N1CCC[C@H]1C(=O)N[C@@H](C)C(=O)N2 [rLvIA] | – | 2.7 | 18.5 |
